Experimental data taken from patent publication US20040248825A1, “Use of neuraminidase inhibitors to prevent flu associated bacterial infections” (St. Jude Children's Research Hospital, priority 2001, published 2004).
Entries after “also recorded” stand apart in the source; their conditions may differ. Read-outs that look alike come from different tables or passages of the source.

Key:
[1] = cited from earlier work
[2] = system: influenza A/PR/8/34 (H1N1) followed by S. pneumoniae D39; experiment: Treatment study: sequential dual infection, oseltamivir begun 48 hours after influenza infection, pneumococcal challenge on day 7; format: in vivo, Balb/cByJ mice; details: for Survival (Mantel-Cox Chi-Squared test on Kaplan-Meier survival data): oseltamivir 10 mg/kg/day BID begun 48 h after influenza, until D39 challenge on day 7, p<0.01 vs water control; for Mean viral lung titer / Weight Loss (% of Baseline) / Mean bacterial lung titer: treatment study; for Mean bacterial lung titer: day 8, 24 hours after pneumococcal challenge
[3] = system: influenza A/PR/8/34 (H1N1) followed by S. pneumoniae D39; experiment: Chemoprophylaxis study: mice infected with influenza virus on day 0, oseltamivir begun 4 hours before infection, pneumococcal challenge on day 7; format: in vivo, Balb/cByJ mice; details: for Weight Loss (% of Baseline) / Mean viral lung titer: prophylaxis study

CC(=O)N[C@H]1[C@H]([C@H](O)[C@H](O)CO)OC(C(=O)O)=C[C@@H]1N=C(N)N [Zanamivir, zanamivir]
Fraction of inhaled drug that reaches the lungs ([1]; dry powder for inhalation): approx. 20% | Gastrointestinal absorption ([1]; in vivo): poorly absorbed | Half-life ([1]; in vivo): 2.5 to 5 h

CCOC(=O)C1=C[C@@H](OC(CC)CC)[C@H](NC(C)=O)[C@@H](N)C1 [oseltamivir, oseltamivir phosphate]
Lung histopathology ([2]; lung tissue on day 8, untreated controls: diffuse, severe infection disseminated throughout both lungs): lobar bronchopneumonia infection that is confined to defined regions of the lungs | Survival (Mantel-Cox Chi-Squared test on Kaplan-Meier survival data) [2]: significantly prolonged | Survival (Mantel-Cox Chi-Squared test on Kaplan-Meier survival data) ([2]; listed as Oseltamivir): prolongs survival | Median survival ([2]; oseltamivir group of the treatment study, control 1 day): 5 days | Weight lost by surviving mice, % of their day 7 weight ([2]; treatment group, in 48 hours after pneumococcal challenge, control 5%): 4% | Survival (number survived/total) ([2]; treatment group, control 0/9): 3/10 | Mean viral lung titer ([2]; day 3): 6.8 log10 | Weight Loss (% of Baseline) ([2]; day 3): 7.6 % of Baseline | Mean viral lung titer ([2]; day 3, listed as Oseltamivir): 6.84 log10 | Mean viral lung titer ([2]; day 7): 5.4 log10 | Weight Loss (% of Baseline) ([2]; day 7): 23 % of Baseline | Mean viral lung titer ([2]; day 7, listed as Oseltamivir): 5.42 log10 | Mean bacterial lung titer [2]: 7.1 log10 CFU/ml | Mean bacterial lung titer ([2]; listed as Oseltamivir): 7.08 log10 CFU/ml | Half-life ([1]; oral): 6 to 10 h | Systemic bioavailability ([1]; oral): 80% | Survival (Mantel-Cox Chi-Squared test on Kaplan-Meier survival data) ([3]; oseltamivir 10 mg/kg/day BID for 5 days from 4 h before influenza, 100 TCID50 PR8 day 0, 100 CFU D39 day 7, p<0.005 vs water control): significantly prolonged; also recorded: prolongs survival | Median survival ([3]; prophylaxis group, after pneumococcal challenge, control <1 day): 7 days | Survival (number survived/total) ([3]; prophylaxis group, followed 21 days, control 0/10): 5/10 | Weight lost by surviving mice, % of their day 7 weight ([3]; prophylaxis group, in 48 hours after pneumococcal challenge, control 9.5%): 7.5% | Weight Loss (% of Baseline) ([3]; day 3): 4.0 % of Baseline | Mean viral lung titer ([3]; day 3, log10/ml TCID50 in MDCK cells): 4.3 log10 | Mean viral lung titer ([3]; day 3, log10/ml TCID50 in MDCK cells, listed as Oseltamivir): 4.32 log10 | Weight Loss (% of Baseline) ([3]; day 7): 9 % of Baseline | Mean viral lung titer ([3]; day 7, before pneumococcal challenge, log10/ml TCID50): 3.84 log10 | Weight Loss (% of Baseline) ([3]; day 7, listed as Oseltamivir): 8.7 % of Baseline
